The term Tmax denotes the time at which the peak concentration occurs. Usually Cmax stands for the highest concentration seen after dosing. As usually defined, the bioavailability is the share of a dose that reaches the circulation, judged against a reference dose that is usually intravenous. The EC50 is the concentration giving half of the maximal effect.

Results on 6 compounds are retold here after patent publication US12570642B2, “GLP-IR modulating compounds” (Gilead Sciences, Inc., priority 2021, dated 2026).

A short description of data set [1]: Pharmacokinetic (PK) studies, in vivo monkey oral PK. Also on record: species or system Cynomolgus monkeys. As to conditions: Cynomolgus monkey; for Tmax / AUC(0-t) / Cmax / bioavailability: plasma; for AUC(0-t): read-out: AUC0-24 (Arbitrary units); for Cmax: read-out: Cmax (Arbitrary unit); for bioavailability: read-out: F % (oral bioavailability). As for the experimental part: Pharmacokinetic (PK) Studies Test Articles:
Examples 60, 115, 117, and 119 were tested along with comparative examples CE-1 and CE-2.
Dose Formulation Preparation
Compounds CE-2, Example 60, Example 115, Example 117, and Example 119 were combined with a mixture of 10% NMP (v:v) and 90% PEG300 (v:v), and the mixture was stirred until a homogeneous solution was obtained.
Compound CE-1 was combined with a mixture of 15% 2-hydroxypropyl-β-cyclodextrin (w:v) and 85% Milli-Q water (v:v), and the mixture was stirred until a homogeneous solution was obtained.
Young adult non-naive Cynomolgus monkeys with weight about 2.5-5 kg (n=1-3/test article/route) were fasted overnight and then dosed with either CE-1, CE2, Example 60, Example 115, Example 117 or Example 119. Food was supplied approximately 4 hours post dose and animals were provided with free access to water all the time. Animals were restrained at designated time points for blood sampling. Approximately 500 μL of blood samples was taken via cephalic or saphenous vein into EDTA-K2 tubes. For oral administration (PO): blood samples were generally collected pre-dose, and at 15 min, 30 min, 1 hr., 2 hr., 4 hr., 8 hr., 12 hr., and 24 hr. time points after dosing. Blood was be maintained on wet ice, in chilled cryoracks, or at approximately 5° C. prior to centrifugation to obtain plasma. Centrifugation was conducted within 1 hour of collection. Plasma (approximately 200 μL) was placed into a micronic tubes containing 4 μL of formic acid (the final concentration of formic acid in plasma was approximately 2%) and samples were vortex mixed. Samples were maintained on dry ice prior to storage at approximately −70° C.
LC-MS/MS assays were utilized to quantify the concentration of the test articles in plasma as follows.
50 μL plasma sample was mixed with 350 μL of ACN combined with an internal standard. The mixture was then vortexed for about 1-5 min, and centrifuged at about 4,000-5,800 rpm for about […]. An aliquot of 1 μL supernatant was used for LC-MS/MS analysis.
MS conditions: A Sciex API 6500 equipped with electrospray ionization in the positive ion selected reaction monitoring mode was used for detection.
HPLC conditions • Mobile Phase A: H2O-0.11% Formic Acid • Mobile Phase B: ACN-0.1% Formic Acid
• Column: Phenomenex Kinetex XBCl8 (2.1×50 mm, 2.6 μm) with a flow rate of 1.20 mL/min • Column temperature: 60° C. • Retention time: approximately between 0.85 to 1.05 • min Pharmacokinetics (PK) Parameters
Pharmacokinetics parameters, including area under the curve (AUC0-24), maximum plasma concentration (Cmax), time to reach maximum plasma concentration (Tmax), oral bioavailability (F %), etc., were calculated using Dotmatics software in non-compartmental model.

The next data set addresses GLP-1R (Homo sapiens, UniProt P43220). Description: GLP-1R Activation - cAMP Assay. Type of data set: cell-based. As to conditions: cAMP increase in CHO cells stably expressing GLP-1R; each compound run on one of the two cAMP assays (Assay 1 or Assay 2, not specified). The gist of the method: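 cAMP rise read by HTRF after 30 min agonist exposure (10-point titration, 37 °C) in HBSS/20 mM Hepes/0.1% BSA, following 1 h pre-incubation. Cells: stable GLP-1R CHO line, 1,000/well, seeded overnight. Sigmoidal fit of response vs log concentration gives EC50.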
(Cyclic AMP is a second messenger, typically raised through Gs and lowered through Gi signalling.)

Molecules are shown by their SMILES. Where two headings read alike, the source gives them in different places.

Chain of GLP-1R (P43220 24-463): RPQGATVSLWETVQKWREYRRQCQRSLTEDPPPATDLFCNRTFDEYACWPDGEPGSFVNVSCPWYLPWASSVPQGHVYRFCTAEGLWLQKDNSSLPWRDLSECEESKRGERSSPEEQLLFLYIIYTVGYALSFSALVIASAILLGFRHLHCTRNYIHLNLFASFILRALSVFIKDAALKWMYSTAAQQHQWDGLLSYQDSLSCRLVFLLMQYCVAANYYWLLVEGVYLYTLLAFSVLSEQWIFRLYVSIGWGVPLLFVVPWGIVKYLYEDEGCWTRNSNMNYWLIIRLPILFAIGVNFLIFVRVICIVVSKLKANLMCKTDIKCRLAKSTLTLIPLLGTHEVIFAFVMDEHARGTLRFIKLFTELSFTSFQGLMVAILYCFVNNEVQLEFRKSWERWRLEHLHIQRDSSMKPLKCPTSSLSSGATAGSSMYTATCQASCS

Compound `N#Cc1ccc(COc2cccc(C3CCN(Cc4nc5ccc(C(=O)O)cc5n4C[C@@H]4CCO4)CC3)n2)c(F)c1` [CE-1, (S)-2-((4-(6-((4-cyano-2-fluorobenzyl)oxy)pyridin-2-yl)piperidin-1-yl)methyl)-1-(oxetan-2-ylmethyl)-1H-benzo[d]imidazole-6-carboxylic acid, reference compound] registered a plasma concentrations in data set [1] (over a period of 12 h after a single oral dose of 1 mg/kg) below 10 nM. Besides, in data set [1] (single oral dose 1 mg/kg), the time of peak concentration (Tmax) is 2.2 ± 1.8 h, the AUC(0-t) amounted to 0.0477 ± 0.0133 µM·h, the peak concentration (Cmax) was determined as 4.5 ± 0.8 nM and the bioavailability turned out to be 2.5%. In addition, the “plasma exposure after the 12 h period” value in data set [1] (single oral dose of 1 mg/kg, after 12 h) is “below the detection limit”.
Regarding `N#Cc1ccc(COc2cccc(-c3cc(F)c(Cc4nc5ccc(C(=O)O)cc5n4C[C@@H]4CCO4)cc3F)n2)c(F)c1` [CE-2, (S)-2-(4-(6-((4-cyano-2-fluorobenzyl)oxy)pyridin-2-yl)-2,5-difluorobenzyl)-1-(oxetan-2-ylmethyl)-1H-benzo[d]imidazole-6-carboxylic acid, reference compound], in data set [1] (single oral dose 2 mg/kg), the duration of exposure result is reported as “sustained exposures over 24 h”, the Tmax stood at 4 ± 2 h, the AUC(0-t) was 2.81 ± 1.33 µM·h and the peak concentration (Cmax) came to 224 ± 130 nM. Further, the bioavailability in data set [1] (single oral dose 2 mg/kg) is 27.4%.
The compound `CC1(C)COC[C@H]1n1c(Cc2cc(F)c(-c3cccc(OCc4ccc(C#N)cc4F)n3)cc2F)nc2ccc(C(=O)O)cc21` [Example 60] yielded an EC50 on GLP-1R of 0.04 nM. Besides, in data set [1] (single oral dose 2 mg/kg), the time of peak concentration (Tmax) was 1.5 ± 0.9 h, the AUC(0-t) was found to be 5.57 ± 2.19 µM·h, the Cmax came to 385 ± 82 nM and the bioavailability turned out to be 47.6 ± 12.3%.
As for `CC1(C)COC[C@H]1n1c(Cc2cc(F)c(-c3cccc(OCc4ccc(Cl)cc4F)n3)cc2F)nc2ccc(C(=O)O)cc21` [Example 115], a half-maximal response on GLP-1R (EC50) required 0.122 nM. Moreover, in data set [1] (single oral dose 2 mg/kg), the Tmax is 2.7 ± 1.2 h, the AUC(0-t) is 17.9 ± 2.04 µM·h, the Cmax came out at 1540 ± 166 nM and the bioavailability was 42 ± 16.5%.
Compound `CC1(C)COC[C@H]1n1c(Cc2cc(F)c(-c3ccnc(OCc4ccc(Cl)cc4F)n3)cc2F)nc2c(F)cc(C(=O)O)cc21` [Example 117, (S)-2-(4-(2-((4-chloro-2-fluorobenzyl)oxy)pyrimidin-4-yl)-2,5-difluorobenzyl)-1-(4,4-dimethyltetrahydrofuran-3-yl)-4-fluoro-1H-benzo[d]imidazole-6-carboxylic Acid] gave an EC50 on GLP-1R of 0.044 nM. Further, in data set [1] (single oral dose 2 mg/kg), the Tmax was 4.7 ± 2.3 h, the AUC(0-t) was 12.8 ± 4.01 µM·h, the highest concentration (Cmax) is 1600 ± 832 nM and the bioavailability worked out at 52.2 ± 16.3%.
Take `CC1(C)COC[C@H]1n1c(Cc2cc(F)c(-c3cccc(OCc4ccc(C#N)cc4)n3)cc2F)nc2ccc(C(=O)O)cc21` [Example 119, (S)-2-(4-(6-((4-cyanobenzyl)oxy)pyridin-2-yl)-2,5-difluorobenzyl)-1-(4,4-dimethyltetrahydrofuran-3-yl)-benzimidazole-6-carboxylic Acid]: on GLP-1R, the EC50 amounted to 0.031 nM. In addition, in data set [1] (single oral dose 2 mg/kg), the time of peak concentration (Tmax) was 1.7 ± 0.6 h, the AUC(0-t) stood at 19.4 ± 3.31 µM·h, the Cmax was 1190 ± 137 nM and the bioavailability was determined as 47.6 ± 8.1%.
